Results on 16 compounds are retold here after patent US4337256A, “1-Phenyl isoquinoline-5-acetic acid compounds and analgesic compositions thereof” (priority 1978, dated 1982).

Read-outs that look alike come from different tables or passages of the source. Bounds are passed on as bounds.

The subject of data set [1] is left hind paw edema (carrageenin). Nature of the data set: Anti-inflammatory activity: carrageenin-induced left hind paw edema. It is filed as in vivo, male Wistar rats. The conditions noted are these: Rattus norvegicus, po, read-out: Percent inhibition (edema). The procedure: Male Wistar rats weighing 120 to 150 g which had been fasted for 24 hours were used in groups each consisting of 5 rats. In each group, the volumes of the left hind paw were measured by a volume differential meter (made by Ugo Basile Company), and each of the test compounds was suspended in an aqueous solution of 0.5% of carboxymethyl cellulose and 2.0% of Tween 80, and administered orally through a tube. After one hour from the administration, 0.1 ml of a 1% suspension of carrageenin in distilled water was subcutaneously injected into the plantar tissues of the left hind paw. Three hours later, the volumes of the left hind paw were again measured. The increase in volume of the left hind paw of each rat in each group (the volume of edema) was measured.

The subject of data set [2] is writhings (acetic acid) in the mice. Nature of the data set: Analgesic activity: acetic acid writhing test. The conditions noted are these: Mus musculus, po, read-out: ED50 (analgesic, writhing inhibition). In kind it is in vivo, male mice (ddY). The procedure: Male mice (ddY) weighing 18 to 22 g were used in groups each consisting of 10 mice. Each of the compounds was suspended in an aqueous solution of 0.5% of carboxymethyl cellulose and 2.0% of Tween 80, and administered orally through a tube. After one hour from the administration, 0.6% acetic acid was administered intraperitoneally in an amount of 0.1 ml per 10 g of body weight, and the number of writhings which occurred in the mice during a period of 20 minutes after the administration was measured. The percent inhibition was calculated from the following equation, and the ED50 values of the test compounds were calculated from the percent inhibition in accordance with the method of Litchfield-Wilcoxon.
(In writhing tests, fewer writhes than in controls are read as antinociception.)

Data set [3] deals with stomach mucosal membrane. The data set is described as follows: Ulcerogenic activity: gastric ulceration. The following applies: p.o., 4 h. It is filed as in vivo, male Wistar rats. The procedure: Each of the test compounds was orally administered by the same way as in the test on anti-inflammatory activity to male Wistar rats weighing 120 to 150 g which had been fasted for 24 hours. Four hours later, they were killed with ether.

Data set [4] is described as follows: Toxicity test (LD50). The conditions noted are these: mouse, in vivo; oral, observed for 1 week; parentheses show 95% confidence limits. The protocol:
Each of the test compounds was suspended in a physiological saline solution having dissolved therein 2% of Tween 80, and orally administered through a tube to groups of ddY mice (male: 19 to 22 g) each group consisting of 6 mice. The mice were then observed for 1 week. The LD50 values were calculated from the lethality in accordance with the method of Litchfield-Wilcoxon.

Data set [5] deals with digestive organs. The conditions noted are these: known agents, statement in words; cited from earlier work.
Setting [6] is: 3 mg/kg, p.o., 1 h before carrageenin, measured 3 h later.
The mark [7] stands for this setting: 10 mg/kg, p.o., 1 h before carrageenin, measured 3 h later.
The mark [8] stands for this setting: p.o. 1 h before 0.6% acetic acid i.p., parentheses show 95% confidence limits.
Where [9] appears, read: 1 mg/kg, p.o., 1 h before carrageenin, measured 3 h later.
Where [10] appears, read: p.o., 1 h before carrageenin, measured 3 h later.

`CCC(C)c1nccc2c(CC(=O)O)cccc12` (centres unmarked) [P, 1-sec-butylisoquinoline-5-acetic acid]: in data set [1] (setting [6]), the inhibition in vivo at 3 mg/kg stood at 15.9 ± 10.4%. In addition, the inhibition in vivo at 10 mg/kg in data set [1] (setting [7]) is 39.6 ± 7%.
`O=C(O)Cc1cccc2c(C3CCCCC3)nccc12` [Compound L, 1-cyclohexylisoquinoline-5-acetic acid]: in data set [2] (setting [8]), the ED50 (in general, the dose at which the effect has come halfway, by size or by number of responders) worked out at 8.5 mg/kg. The inhibition in vivo at 1 mg/kg in data set [1] (setting [9]) was 9.7 ± 2%. Also, in data set [1] (setting [6]), the inhibition in vivo at 3 mg/kg worked out at 17.4 ± 5.2%. The inhibition in vivo at 10 mg/kg in data set [1] (setting [7]) stood at 43.1 ± 4.3%. Besides, in data set [3] (10 mg/kg), the “Gastric ulceration: bleeding at the mucosal membrane” value (from here on “Gastric ulceration: bleeding”) is reported as 0/5 and the “Gastric ulceration: damage beneath the mucosal membrane” value is recorded as 0/5. Also, in data set [3] (30 mg/kg), the “Gastric ulceration: bleeding” value is 3/5 and the “Gastric ulceration: damage beneath the mucosal membrane” value is 3/5. Besides, in data set [4], the LD50 – broadly, the dose expected to kill half of the subjects tested – at 168 h is over 300 mg/kg.
Take `Cc1ccc(-c2nccc3c(CC(=O)O)cccc23)cc1` [Compound E, 1-(4-methylphenyl)isoquinoline-5-acetic acid]: in data set [2] (setting [8]), the ED50 is 4.3 mg/kg. Besides, the inhibition in vivo at 3 mg/kg in data set [1] (setting [6]) came out at 26.9 ± 5.2%. The inhibition in vivo at 10 mg/kg in data set [1] (setting [7]) was 49.5 ± 5.1%. Further, the “Gastric ulceration: bleeding” value in data set [3] (10 mg/kg) and in data set [3] (30 mg/kg) was 0/5 in each case. Further, the “Gastric ulceration: damage beneath the mucosal membrane” value is 0/5 in data set [3] (10 mg/kg) and 4/5 in data set [3] (30 mg/kg). The LD50 at 168 h in data set [4] was over 300 mg/kg.
As for `CN(C)c1ccc(-c2nccc3c(CC(=O)O)cccc23)cc1` [D, 1-(4-dimethylaminophenyl)isoquinoline-5-acetic acid], the ED50 in data set [2] (setting [8]) turned out to be 0.11 mg/kg. In data set [1] (setting [9]), the inhibition in vivo at 1 mg/kg is 16.3 ± 7.1%. For the same compound, the inhibition in vivo at 3 mg/kg in data set [1] (setting [6]) amounted to 34.2 ± 5.6%. The inhibition in vivo at 10 mg/kg in data set [1] (setting [7]) was determined as 42.1 ± 5.3%. In data set [3] (10 mg/kg), the “Gastric ulceration: bleeding” value is on record as 0/6 and the “Gastric ulceration: damage beneath the mucosal membrane” value is 0/6. Moreover, in data set [3] (30 mg/kg), the “Gastric ulceration: bleeding” value was 3/6 and the “Gastric ulceration: damage beneath the mucosal membrane” value is given as 3/6. Moreover, in data set [4], the LD50 at 168 h was over 300 mg/kg.
As for `CC(C)c1nccc2c(CC(=O)O)cccc12` [M, 1-isopropylisoquinoline-5-acetic acid], the 50% effective dose (ED50) in data set [2] (setting [8]) worked out at 3.5 mg/kg. Moreover, in data set [1] (setting [9]), the inhibition in vivo at 1 mg/kg was 19.3 ± 2.6%. The inhibition in vivo at 3 mg/kg in data set [1] (setting [6]) came out at 38.6 ± 3.2%. For the same compound, the inhibition in vivo at 10 mg/kg in data set [1] (setting [7]) amounted to 62.9 ± 5.9%. Further, in data set [4], the LD50 at 168 h was 250 mg/kg.
Taken in the same sequence, the figures for `O=C(O)Cc1cccc2c(-c3ccc(F)cc3)nccc12` [C, 1-(4-fluorophenyl)isoquinoline-5-acetic acid] were 8.8 mg/kg, 25.6 ± 3.4%, 28.3 ± 5.8%, 36.5 ± 4% and over 300 mg/kg.
For the compound `O=C(O)Cc1cccc2c(C3CCCC3)nccc12` [N, 1-cyclopentylisoquinoline-5-acetic acid], in data set [1] (setting [6]), the inhibition in vivo at 3 mg/kg stood at 21.9 ± 8.1%. In addition, the inhibition in vivo at 10 mg/kg in data set [1] (setting [7]) was found to be 24.8 ± 4.9%.
For `COc1ccc(-c2nccc3c(CC(=O)O)cccc23)cc1` [G, 1-(4-methoxyphenyl)isoquinoline-5-acetic acid], the 50% effective dose (ED50) in data set [2] (setting [8]) came out at 9.2 mg/kg. Further, the inhibition in vivo at 1 mg/kg in data set [1] (setting [9]) was 13.1 ± 9.1%. Also, the inhibition in vivo at 3 mg/kg in data set [1] (setting [6]) is 32.3 ± 6.3%. Besides, the inhibition in vivo at 10 mg/kg in data set [1] (setting [7]) is 41.2 ± 7.2%. Also, in data set [3] (30 mg/kg), the “Gastric ulceration: bleeding” value was 0/5 and the “Gastric ulceration: damage beneath the mucosal membrane” value was 0/5. Also, the median lethal dose (LD50) at 168 h in data set [4] was over 300 mg/kg.
As for `O=C(O)Cc1cccc2c(-c3ccc(C(F)(F)F)cc3)nccc12` [I, 1-(4-trifluoromethylphenyl)isoquinoline-5-acetic acid], the inhibition in vivo at 3 mg/kg in data set [1] (setting [6]) is 17 ± 4.5%. Further, in data set [1] (setting [7]), the inhibition in vivo at 10 mg/kg came out at 24.5 ± 7.1%. Also, the inhibition in vivo at 30 mg/kg in data set [1] (setting [10]) was determined as 30.2 ± 5.3%.
As to `CC(C(=O)O)c1cccc2c(-c3ccc(Cl)cc3)nccc12` (centres unmarked) [F, 2-[1-(4-chlorophenyl)isoquinolin-5-yl]propionic acid], the ED50 in data set [2] (setting [8]) was 3.2 mg/kg. Further, the inhibition in vivo at 1 mg/kg in data set [1] (setting [9]) is 27.3 ± 6.3%. The inhibition in vivo at 3 mg/kg in data set [1] (setting [6]) was found to be 33.1 ± 4.8%. Also, the inhibition in vivo at 10 mg/kg in data set [1] (setting [7]) was found to be 39.7 ± 5.1%. Besides, the “Gastric ulceration: bleeding” value was 1/5 in data set [3] (10 mg/kg) and 2/5 in data set [3] (30 mg/kg). Also, the “Gastric ulceration: damage beneath the mucosal membrane” value in data set [3] (10 mg/kg) was 0/5; in data set [3] (30 mg/kg), 2/5.
Turning to `CC(C)Cc1nccc2c(CC(=O)O)cccc12` [O, 1-isobutylisoquinoline-5-acetic acid], in data set [1] (setting [6]), the inhibition in vivo at 3 mg/kg stood at 21.2 ± 7.8%. The inhibition in vivo at 10 mg/kg in data set [1] (setting [7]) stood at 30.3 ± 5.6%. The inhibition in vivo at 30 mg/kg in data set [1] (setting [10]) worked out at 42.8 ± 8.8%.
On to `O=C(O)Cc1cccc2c(-c3ccccc3)nccc12` [H, 1-phenylisoquinoline-5-acetic acid], for which the ED50 in data set [2] (setting [8]) turned out to be 4.1 mg/kg. Further, the inhibition in vivo at 3 mg/kg in data set [1] (setting [6]) came out at 21.8 ± 4.5%. Besides, the inhibition in vivo at 10 mg/kg in data set [1] (setting [7]) is 31 ± 5.2%. Besides, the inhibition in vivo at 30 mg/kg in data set [1] (setting [10]) came out at 46.4 ± 7.7%. Moreover, in data set [3] (10 mg/kg), the “Gastric ulceration: bleeding” value was 1/15 and the “Gastric ulceration: damage beneath the mucosal membrane” value is on record as 1/15. Further, in data set [3] (30 mg/kg), the “Gastric ulceration: bleeding” value is reported as 4/20 and the “Gastric ulceration: damage beneath the mucosal membrane” value is on record as 2/20. Besides, the median lethal dose (LD50) at 168 h in data set [4] was over 300 mg/kg.
`CCOC(=O)Cc1cccc2c(-c3ccccc3)nccc12` [J, ethyl-1-phenylisoquinoline-5-acetate]: the inhibition in vivo at 10 mg/kg in data set [1] (setting [7]) was determined as 23.2 ± 6.1%. In addition, the inhibition in vivo at 30 mg/kg in data set [1] (setting [10]) came out at 41.1 ± 4.8%.
Consider `COc1ccc2c(c1)c(CC(=O)O)c(C)n2C(=O)c1ccc(Cl)cc1` [Indomethacin, reference compound], for which, in data set [2] (1 h), the median effective dose (ED50) worked out at 0.21 mg/kg. In addition, in data set [1] (3 h), the inhibition in vivo at 1 mg/kg was 15.9 ± 6.2%, the inhibition in vivo at 3 mg/kg was found to be 29.8 ± 5.7% and the inhibition in vivo at 10 mg/kg came out at 40.6 ± 5.1%. Moreover, in data set [5], the “troubles in the digestive organs” value is reported as “fairly heavy troubles in the digestive organs”. The LD50 at 168 h in data set [4] is 17.3 mg/kg.
Turning to `NC(=O)Cc1cccc2c(-c3ccccc3)nccc12` [K, 1-phenylisoquinoline-5-acetamide], the inhibition in vivo at 10 mg/kg in data set [1] (setting [7]) worked out at 9 ± 6.4%. The inhibition in vivo at 30 mg/kg in data set [1] (setting [10]) was determined as 39.7 ± 5.8%.
For `O=C(O)Cc1cccc2c(-c3ccc(Br)cc3)nccc12` [B, 1-(4-bromophenyl)isoquinoline-5-acetic acid], the median effective dose (ED50) in data set [2] (setting [8]) was 1 mg/kg. Further, the inhibition in vivo at 0.3 mg/kg in data set [1] (0.3 mg/kg, p.o., 1 h before carrageenin, measured 3 h later) is 26.8 ± 5.3%. Moreover, the inhibition in vivo at 1 mg/kg in data set [1] (setting [9]) stood at 33.7 ± 6.1%. In addition, the inhibition in vivo at 3 mg/kg in data set [1] (setting [6]) was 48.2 ± 4.4%. Further, the results for the “Gastric ulceration: bleeding” value in data set [3] (10 mg/kg) and in data set [3] (30 mg/kg) were 0/5 and 2/5, respectively. Besides, the “Gastric ulceration: damage beneath the mucosal membrane” value in data set [3] (10 mg/kg) was 0/5; in data set [3] (30 mg/kg), 4/5. Also, the LD50 at 168 h in data set [4] is 182 mg/kg.
